In patent US5633219A, “5H-pyrrolo(3',4':5,6)(1,4)dithiin o(2,3-C)(1,2,5)thiadiazole-5,7(6H)-dione, compositions containing them and their use as antimicrobial and marine antifouling agents” (The Dow Chemical Company, priority 1996, dated 1997):
In brackets after ≈: the same amount, converted by molar mass. Like-named read-outs stand apart in the source and are kept apart here.

What was measured:
[1] = test system: Saccharomyces cerevisiae (Sc); experiment: Minimum inhibitory concentration, malt yeast agar, Saccharomyces cerevisiae; assay type: cell-based, Saccharomyces cerevisiae ATCC 4105; conditions: read-out: Minimum Inhibitory Concentration, Sc
Experimental: (§1) Malt yeast agar is prepared by adding 3 g yeast extract and 45 g malt agar per liter of deionized water. The specific agar is dispensed in 30 mL aliquots into 25×200 mm test tubes, capped and autoclaved for 15 minutes at 115° C.
(§2) The inoculation with the yeast and fungi is accomplished as follows. Cultures of yeast and fungi are incubated for seven days on malt yeast agar at 30° C. These cultures are used to prepare suspensions by the following procedure. A suspension of each organism is prepared by adding 10 mL of sterile saline and 10 microliters of octylphenoxy polyethoxy ethanol to the agar slant of yeast or fungi. The sterile saline/octylphenoxy polyethoxy ethanol solution is then agitated with a sterile swab to suspend the microorganism grown on the slant. Each resulting suspension is diluted into sterile saline (1 part suspension to 9 parts sterile saline). Aliquots of these dilutions are placed in individual wells of Steer's Replicator and petri plates inoculated as previously described. The petri plates are incubated at 30° C. and read after 48 hours for yeast and 72 hours for fungi.

Escherichia coli (Ec) = experiment: Minimum inhibitory concentration, nutrient agar, Escherichia coli; conditions: 48 h
Candida albicans (Ca) = experiment: Minimum inhibitory concentration, malt yeast agar, Candida albicans; assay type: cell-based, Candida albicans ATCC 10231; conditions: read-out: Minimum Inhibitory Concentration, Ca
Experimental: as §1, §2

[2] = test system: Enterobacter aerogenes (Ea); experiment: Minimum inhibitory concentration, nutrient agar, Enterobacter aerogenes; conditions: Klebsiella aerogenes, 48 h
[3] = test system: Salmonella choleraesuis (Sc); experiment: Minimum inhibitory concentration, nutrient agar, Salmonella choleraesuis; assay type: cell-based, Salmonella choleraesuis ATCC 10708; conditions: Salmonella enterica, 30° C, 48 hours
[4] = test system: Penicillium chrysogenum (PC); experiment: Minimum inhibitory concentration, malt yeast agar, Penicillium chrysogenum; assay type: cell-based, Penicillium chrysogenum ATCC 9480; conditions: read-out: Minimum Inhibitory Concentration, Pc
Experimental: as §1, §2

[5] = test system: Pseudomonas aeruginosa (Pa); experiment: Minimum inhibitory concentration, nutrient agar, Pseudomonas aeruginosa; assay type: cell-based, Pseudomonas aeruginosa ATCC 10145; conditions: 30° C, 48 hours
[6] = test system: Pseudomonas aeruginosa (PRD-10); experiment: Minimum inhibitory concentration, nutrient agar, Pseudomonas aeruginosa PRD-10; conditions: 48 h
Proteus vulgaris (Pv) = experiment: Minimum inhibitory concentration, nutrient agar, Proteus vulgaris; conditions: 48 h
[7] = test system: Aureobasidium pullulan (Ap); experiment: Minimum inhibitory concentration, malt yeast agar, Aureobasidium pullulan; assay type: cell-based, Aureobasidium pullulan ATCC 16622; conditions: 30° C, 48 hours for yeast and 72 hours for fungi
Experimental: as §1, §2

[8] = test system: Staphylococcus aureus (Sa); experiment: Minimum inhibitory concentration, nutrient agar, Staphylococcus aureus; conditions: 48 h
[9] = test system: Klebsiella pneumoniae (Kp); experiment: Minimum inhibitory concentration, nutrient agar, Klebsiella pneumoniae; conditions: 48 h
Trichoderma viride (Tv) = experiment: Minimum inhibitory concentration, malt yeast agar, Trichoderma viride; assay type: cell-based, Trichoderma viride ATCC 8678; conditions: read-out: Minimum Inhibitory Concentration, Tv
Experimental: as §1, §2

Bacillus subtilis (Bs) = experiment: Minimum inhibitory concentration, nutrient agar, Bacillus subtilis; conditions: 48 h
Fusarium oxysporum (Of) = experiment: Minimum inhibitory concentration, malt yeast agar, Fusarium oxysporum; assay type: cell-based, Fusarium oxysporum ATCC 48112; conditions: 30° C, 72 hours (fungi), read-out: Minimum Inhibitory Concentration, Fo
Experimental: as §1, §2

Aspergillus niger (An) = experiment: Minimum inhibitory concentration, malt yeast agar, Aspergillus niger; assay type: cell-based, Aspergillus niger ATCC 16404; conditions: 30° C, 72 hours (fungi)
Experimental: as §1, §2

[10] = pH 6.8, read-out: Minimum inhibitory Concentration, Ec
[11] = pH 8.2, read-out: Minimum inhibitory Concentration, Ec
[12] = pH 6.8, read-out: Minimum inhibitory Concentration, Ea
[13] = pH 8.2, read-out: Minimum inhibitory Concentration, Ea
[14] = malt yeast agar, 30° C, 72 hours (fungi)
[15] = pH 6.8, read-out: Minimum inhibitory Concentration, PRD
[16] = pH 8.2, read-out: Minimum inhibitory Concentration, PRD
[17] = pH 6.8, read-out: Minimum inhibitory Concentration, Pv
[18] = pH 8.2, read-out: Minimum inhibitory Concentration, Pv
[19] = pH 6.8, read-out: Minimum inhibitory Concentration, Sa
[20] = pH 8.2, read-out: Minimum inhibitory Concentration, Sa
[21] = pH 6.8, read-out: Minimum inhibitory Concentration, Kp
[22] = pH 8.2, read-out: Minimum inhibitory Concentration, Kp
[23] = pH 6.8, read-out: Minimum inhibitory Concentration, Bs
[24] = pH 8.2, read-out: Minimum inhibitory Concentration, Bs
[25] = malt yeast agar, 30° C, 48 hours (yeast)

Row | Structure (SMILES) | MIC (Escherichia coli (Ec); [10]) [µg/mL] | MIC (Escherichia coli (Ec); [11]) [µg/mL] | MIC [2, 12] [µg/mL] | MIC [2, 13] [µg/mL] | MIC ([3]; pH 6.8, nutrient agar) [µg/mL] | MIC ([3]; pH 8.2, nutrient agar) [µg/mL] | MIC [4, 14] [µg/mL] | MIC ([5]; pH 6.8, nutrient agar) [µg/mL] | MIC ([5]; pH 8.2, nutrient agar) [µg/mL] | MIC [6, 15] [µg/mL] | MIC [6, 16] [µg/mL] | MIC (Proteus vulgaris (Pv); [17]) [µg/mL] | MIC (Proteus vulgaris (Pv); [18]) [µg/mL] | MIC [7] [µg/mL] | MIC [8, 19] [µg/mL] | MIC [8, 20] [µg/mL] | MIC [9, 21] [µg/mL] | MIC [9, 22] [µg/mL] | MIC (Bacillus subtilis (Bs); [23]) [µg/mL] | MIC (Bacillus subtilis (Bs); [24]) [µg/mL] | also measured
1 | CCCCCCn1c(=O)c2sc3nsnc3sc=2c1=O [V, 6-n-Hexyl-5H-Pyrrolo (3',4':5,6)(1,4)dithiino-(2,3-C)(1,2,5)thiadiazole-5,7(6H) -dione] | > 500 | > 500 | > 500 | > 500 | > 500 | > 500 | 25 (≈ 76.3 µM) | > 500 | > 500 | > 500 | > 500 | > 500 | > 500 | 25 (≈ 76.3 µM) | < 10 | < 10 | > 500 | > 500 | < 10 | 25 (≈ 76.3 µM) | MIC ([1]; 48 h): 25 µg/mL (≈ 76.3 µM); MIC (Candida albicans (Ca); 48 h): 25 µg/mL (≈ 76.3 µM); MIC (Trichoderma viride (Tv); 72 h): 50 µg/mL (≈ 153 µM)
2 | O=c1c2sc3nsnc3sc=2c(=O)n1-c1ccccc1 [VI, 6-Phenyl-5H-Pyrrolo(3',4':5,6)(1,4)dithiino-(2,3-C)(1,2,5)thiadiazole-5,7 (6H) -dione] | > 500 | > 500 | > 500 | > 500 | > 500 | > 500 | – | > 500 | > 500 | > 500 | > 500 | > 500 | > 500 | < 10 | 25 (≈ 78.3 µM) | 50 (≈ 157 µM) | > 500 | > 500 | < 10 | 100 (≈ 313 µM) | MIC [1, 25]: 100 µg/mL (≈ 313 µM); MIC (Fusarium oxysporum (Of)): 250 µg/mL (≈ 783 µM); MIC (Candida albicans (Ca); [25]): 250 µg/mL (≈ 783 µM); MIC ([4]; 72 h): < 10 µg/mL; MIC (Trichoderma viride (Tv); [14]): 500 µg/mL (≈ 1570 µM); MIC (Aspergillus niger (An)): < 10 µg/mL
3 | O=c1c2sc3nsnc3sc=2c(=O)n1CCc1ccccc1 [VII, 6-(2-Phenethyl)-5H-Pyrrolo(3',4':5,6)(1,4)dithiino-(2,3-C)(1,2,5)thiadiazole-5,7(6H)-dione] | > 500 | > 500 | > 500 | > 500 | > 500 | > 500 | > 500 | > 500 | > 500 | > 500 | > 500 | > 500 | > 500 | 100 (≈ 288 µM) | > 500 | > 500 | > 500 | > 500 | > 500 | > 500 | MIC [1, 25]: 250 µg/mL (≈ 720 µM); MIC (Fusarium oxysporum (Of)): > 500 µg/mL; MIC (Candida albicans (Ca); [25]): > 500 µg/mL; MIC (Trichoderma viride (Tv); [14]): > 500 µg/mL; MIC (Aspergillus niger (An)): 100 µg/mL (≈ 288 µM)
